For one series, the system named is glucose production. The following applies: i.v. infusion; cited from earlier work.
Series [1] concerns FBP1^WT/WT (WT) and FBP1^G27P/G27P (KI) mice. In words: AICAR tolerance in mice. Type of series: in vivo, mouse. Particulars: 250 mg.kg^-1 i.p.
Series [2] has as its system gastrocnemius (GAS) muscle. Nature of the series: Skeletal muscle adenine/Z nucleotides after AICAR. The series is classed as in vivo, mouse. The following applies: following AICAR treatment.
In a further series the test system is AMPK. In words: AMPK activation in tissue by Western blotting / kinase assay. The series is classed as in vivo, mouse.
Another series has as its target T1, mouse FBP1 Y114F (Mus musculus, UniProt Q9QXD6, Y114F).
T1 sequence (Q9QXD6 1-338 Y114F): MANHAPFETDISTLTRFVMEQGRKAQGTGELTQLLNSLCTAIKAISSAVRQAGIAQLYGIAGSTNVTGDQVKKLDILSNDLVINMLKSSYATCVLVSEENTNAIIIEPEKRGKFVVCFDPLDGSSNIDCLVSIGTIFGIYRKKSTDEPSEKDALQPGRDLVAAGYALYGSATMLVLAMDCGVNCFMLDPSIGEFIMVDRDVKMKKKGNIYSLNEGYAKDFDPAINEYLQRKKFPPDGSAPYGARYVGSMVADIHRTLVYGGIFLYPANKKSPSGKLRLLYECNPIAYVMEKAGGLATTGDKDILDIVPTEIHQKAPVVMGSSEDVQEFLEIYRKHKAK
Nature of the series: FBPase coupled assay, mouse FBP1 Y114F. Particulars: untagged Y114F, data not shown. Type of series: biochemical.

The next series deals with T2, mouse FBP1 (WT) (Mus musculus, UniProt Q9QXD6).
T2 sequence (Q9QXD6 1-338): T1 sequence (Q9QXD6 1-338 Y114F) with F114Y
Nature of the series: FBPase coupled assay, recombinant mouse FBP1 WT. Type of series: biochemical.

The next series in a line: [11C]-metformin microPET. The series is classed as in vivo, mouse. Particulars: acute intravenous [11C]-metformin, WT vs KI mice.
Another series deals with rabbit muscle AMPD1. Nature of the series: AMPD1 assay. Type of series: biochemical. The following applies: rabbit muscle AMPD1, up to 10 mM.
For series [3], the system named is FBP1^WT/WT (WT) and FBP1^G27P/G27P (KI) mice. Nature of the series: Metformin-euglycemic clamp. The series is classed as in vivo, mouse.
The test system of a further series is mouse liver. In words: Liver adenine/Z nucleotides and metabolites after drug treatment. The series is classed as in vivo. The following applies: 250 mg.kg^-1 p.o.
The conditions of series [4]: random blood samples from diabetic subjects; cited from earlier work.
For series [5] the following is noted: rats, cited from earlier work.
The test system of another series is isolated hepatocytes. The following applies: lactate and pyruvate as sole carbon sources, 1 mM; cited from earlier work.
Another series in a line: in vivo. Particulars: mouse, plasma, po, 250 mg.kg^-1.
A short description of series [6]: Metformin assay in plasma and tissues.
For another series, the system named is HFD-fed WT and KI mice. Nature of the series: Metformin in high-fat diet. The following applies: 250 mg.kg^-1 p.o., 2 h.
The mark [7] stands for this setting: end of clamp, 1.875 mg.kg^-1.min^-1 i.v.

Substitutions are numbered along the chain they refer to. Like-named read-outs stand apart in the source and are kept apart here. Bounds are passed on as bounds.

As to `N#Cc1c(O)c2c(-c3ccc(-c4ccccc4O)cc3)csc2[nH]c1=O` [A769662], the “effect on glucose production” value with glucose production is reported as “no effect on glucose production”.

Take `NC(=O)c1ncn([C@@H]2O[C@H](CO)[C@@H](O)[C@H]2O)c1N` [AICAR, 5-aminoimidazole-4-carboxamide-1-β-D-ribofuranoside]: the blood lactate levels result in [1] (KI mice, t = 60 min) was “only modestly”. Besides, the plasma insulin levels result in [1] (WT and KI mice, t = 60 min) is “no significant change”. In addition, the “decrease in blood glucose levels” value in series [1] (WT mice, fasted 16 h) is given as ~ 60%. For the same compound, in series [1] (WT mice, t = 60 min), the blood lactate levels entry is given as “marked increase” and the plasma glucagon levels result is “increased”. Moreover, in series [2], the “ZMP concentration in skeletal muscle, fold less compared to liver” value is reported as greater than 50 fold and the “[ZMP]:[ATP] ratio in skeletal muscle, fold less compared to liver” value was greater than 150 fold. In addition, the “phosphorylation of liver AMPK and ACC” value in the series on AMPK (liver, WT and KI mice, AICAR 250 mg.kg^-1 i.p., 60 min) is “robustly stimulated”. In the series with AMPK (skeletal muscle, both genotypes, AICAR 250 mg.kg^-1 i.p., 60 min), the “AMPKα T172 phosphorylation and activity in skeletal muscle” value is listed as “failed to increase”.

Turning to `O=P(O)(O)OC[C@H]1O[C@@](CO)(OP(=O)(O)O)[C@@H](O)[C@@H]1O` [F-2,6-P2, fructose-2,6-bisphosphate], the “IC50 for F-2,6-P2” value at mouse FBP1 Y114F is on record as “increased IC50”.

Consider `CC(C)Cc1sc(N)nc1-c1ccc(P(=O)(O)O)o1` [MB05032, 2-amino-5-isobutyl-4-[5-phosphono-2-furanyl]thiazole], for which the “fold less sensitive, mouse FBP1 compared to rat FBP1” value on mouse FBP1 (WT) (recombinant, in vitro) is ~ 2 fold.

For `CN([11CH3])C(=N)N=C(N)N` [[^11C]-metformin], the “kinetics and total metformin uptake in liver (PET)” value in [11C]-metformin microPET is “comparable between WT and KI mice”.

Consider `CN(C)C(=N)N=C(N)N` [metformin, N,N-dimethylbiguanide], for which the “direct inhibitory effect on FBP1” value at mouse FBP1 (WT) (purified mouse FBP1, up to 10 mM) was “does not have a direct inhibitory effect on FBP1 up to 10 mM”. In the series on rabbit muscle AMPD1, the “inhibition of AMP deaminase 1 (AMPD1)” value is “Neither does it appear to inhibit”. For the same compound, the “glucose infusion rate (GIR)” value in [3] (1.875 mg.kg^-1.min^-1 i.v., WT (and also KI) mice) is recorded as “failed to increase GIR significantly from baseline”; in series [3] (3.75 mg.kg^-1.min^-1 i.v., KI mice, 120 min clamp) it was “only a modest increase in GIR”; in [3] (3.75 mg.kg^-1.min^-1 i.v., WT mice, 120 min clamp), “substantial increase in GIR”. In addition, the “suppression of EndoRa, gluconeogenesis and glycogenolysis” value in [3] (3.75 mg.kg^-1.min^-1 i.v., KI mice) is “ablated”. Also, the “suppression of endogenous glucose production (EndoRa)” value in series [3] (3.75 mg.kg^-1.min^-1 i.v., WT mice) is given as ~ 20%. Moreover, the “increase in glucose disposal rate (Rd)” value in series [3] (3.75 mg.kg^-1.min^-1 i.v., both WT and KI) is on record as 40-50%. Further, in the series on mouse liver (both genotypes), the “decrease in hepatic energy charge” value is listed as ~ 10%. Moreover, the “increase in hepatic [AMP]:[ATP]” value in the series on mouse liver (both genotypes) is ~ 2 fold. Also, in the series with mouse liver (HFD-fed mice, 2 h), the “hepatic cAMP” value is “no significant effect”. The “phosphorylation of liver AMPK and ACC” value in the series with AMPK (mouse, in vivo, po) is “robust increase”. Also, the “plasma metformin levels, upper end of range” value in series [4] was 868 µM. Also, the plasma metformin concentration in [5] (50 mg.kg^-1 intravenously, 30 min after administration) is ~ 74 μM; in series [5] (100 mg.kg^-1), 345 µM; in series [5] (250 mg.kg^-1), 1300 µM. Besides, the “reduction in intracellular ATP concentration” value with isolated hepatocytes is reported as ~ 85%. In addition, in “in vivo”, the concentration at 1 h lay within 125 to 150 µM. Also, in series [6] (250 mg.kg^-1 p.o., 1 h, comparable between genotypes), the liver metformin level is ~ 0.7 μmol.g^-1. Further, the liver metformin in [6] (setting [7]) is on record as ~ 0.8 μmol.g^-1. In series [6] (setting [7]), the plasma metformin is reported as ~ 170 μM. Moreover, in the series with HFD-fed WT and KI mice (HFD-fed KI mice), the “decrease of blood glucose” value is ~ 10%. Also, the “reduction of blood glucose levels” value in the series on HFD-fed WT and KI mice (HFD-fed WT mice) was 30-40%.

Values taken from article PMC6207338 (Nature medicine, 2018).
